Measurements published in PubChem BioAssay AID651769 (The Scripps Research Institute Molecular Screening Center, 2012).
pEC50: −log10 of the molar value. Calls of active or inactive are those of the source. No rule for the calls is given here.

The compounds below were run against Mu-type opioid receptor (Homo sapiens) (UniProt P35372) (assay: mu opioid receptor activators – cell-based, luminescence, dose response, set 2, counter-screen for OPRM1-OPRD1 heterodimer activator project, late-stage follow-up (AID 651769)). Details: OPRM1 cell-based luminescence activation counterscreen.
Chain of Mu-type opioid receptor (Homo sapiens) (P35372 whole entry, looked up): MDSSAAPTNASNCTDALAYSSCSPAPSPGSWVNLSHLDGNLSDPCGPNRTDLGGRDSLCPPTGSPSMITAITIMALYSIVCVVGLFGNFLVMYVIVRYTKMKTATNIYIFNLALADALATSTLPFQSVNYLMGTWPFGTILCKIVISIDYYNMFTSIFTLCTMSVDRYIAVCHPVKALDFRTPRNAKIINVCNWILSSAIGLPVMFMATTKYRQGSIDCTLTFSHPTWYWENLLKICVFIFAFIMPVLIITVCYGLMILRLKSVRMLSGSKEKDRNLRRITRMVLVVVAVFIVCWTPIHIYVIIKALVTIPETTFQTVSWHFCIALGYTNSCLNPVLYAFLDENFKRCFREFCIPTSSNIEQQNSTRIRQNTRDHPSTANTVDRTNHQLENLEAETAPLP

EC50	pEC50	Compound
> 50 µM (inactive)		CCOC(=O)C1CCN(Cc2ccc(N(C)C)cc2)CC1
> 50 µM (inactive)		CCOC(=O)C1(CCOC)CCCN(Cc2ccc(NC(C)=O)cc2)C1 (stereo not drawn)
> 50 µM (inactive)		CCOC(=O)C1(CCc2ccccc2)CCN(Cc2ccc(O)cc2)CC1
> 50 µM (inactive)		CCOC(=O)C1(CCc2ccccc2)CCCN(Cc2ccc(N3CCNC3=O)cc2)C1 (stereo not drawn)
> 50 µM (inactive)		CCOC(=O)C1CCN(CCC(=O)Nc2ccc(C)cc2)CC1
> 50 µM (inactive)		CCOC(=O)C1(CCc2ccccc2)CCN(Cc2ccncc2)CC1
> 50 µM (inactive)		CCOC(=O)C1CCN(Cc2ccc(NC(C)=O)cc2)CC1
> 50 µM (inactive)		CCOC(=O)C1(CCOC)CCN(Cc2ccc(N(C)c3ccccc3)cc2)CC1
> 50 µM (inactive)		CCOC(=O)C1(Cc2cccc(OC)c2)CCCN(Cc2ccc(NC(C)=O)cc2)C1 (stereo not drawn)
> 50 µM (inactive)		CCOC(=O)C1CCCCN1Cc1ccc(NC(C)=O)cc1 (stereo not drawn)
	5.46	CCOC(=O)C1(CCc2ccccc2)CCN(Cc2c(O)cccc2OC)CC1
> 50 µM (inactive)		CCOC(=O)C1CCN(C(=O)c2ccc(N(C)C)cc2)CC1
> 50 µM (inactive)		C=Cc1ccc(C(=O)N2CCC(CCCc3ccccc3)(C(=O)OCC)CC2)cc1
> 50 µM (inactive)		CCOC(=O)C1(CCOC)CCN(Cc2ccc(NC(C)=O)cc2)CC1
> 50 µM (inactive)		CCOC(=O)C1(Cc2ccccc2Cl)CCN(Cc2ccc(NC(C)=O)cc2)CC1
> 50 µM (inactive)		CCOC(=O)C1(Cc2ccccc2C)CCCN(Cc2ccc(NC(C)=O)cc2)C1 (stereo not drawn)
> 50 µM (inactive)		CCOC(=O)C1(CCc2ccccc2)CCN(Cc2ccc(C(=O)OC)cc2)CC1
> 50 µM (inactive)		CCOC(=O)C1(CCOc2ccccc2)CCCN(Cc2ccc(NC(C)=O)cc2)C1 (stereo not drawn)
> 50 µM (inactive)		CCOC(=O)C1(CCc2ccccc2)CCN(Cc2ccc(C#CC(C)(C)O)cc2)CC1
> 50 µM (inactive)		O=C(O)C1CCCCC1C(=O)Nc1ccc(CN2CCCCC2)cc1 (stereo not drawn)
> 50 µM (inactive)		CCOC(=O)C1(CC2CC2)CCN(Cc2ccc(NC(C)=O)cc2)CC1
	5.72	CCOC(=O)C1(CCc2ccccc2)CCN(Cc2ccc(OC)cc2)CC1
> 50 µM (inactive)		CCOC(=O)C1(CC2CC2)CCN(C(=O)c2ccc(N3CCCCC3)cc2)CC1
> 50 µM (inactive)		CCOC(=O)C1(Cc2ccc(OC)cc2)CCN(C(=O)c2ccc(N(C)C)cc2)CC1
> 50 µM (inactive)		CC(=O)Nc1ccc(CN2CCCC(CO)(CCc3ccccc3)C2)cc1 (stereo not drawn)
> 50 µM (inactive)		CCOC(=O)C1(CCc2ccccc2)CCN(C(=O)Nc2ccc(C)cc2C)CC1
> 50 µM (inactive)		C=Cc1ccc(C(=O)N2CCC(CCc3ccccc3)(C(=O)OCC)CC2)cc1
> 50 µM (inactive)		CCOC(=O)C1(Cc2ccccc2)CCCN(Cc2ccc(NC(C)=O)cc2)C1 (stereo not drawn)
